Experimental data taken from patent US6841578B2, “Treatment and prevention of mucositis in cancer patients” (priority 2001, dated 2005).

Columns and labels:
[1] = tested on: radiation-induced mucositis; assay: Hamster model of acute radiation-induced mucositis treated with resveratrol; format: in vivo, Male Golden Syrian hamsters; conditions: for percentage of days where hamsters had a mucositis score of three or higher: qd, day -1 to day 20, 40 Gy on day 0, control 46.0%
NF-κB = conditions: induction by TNF-α; phosphorylation and nuclear translocation of p65 subunit suppressed; cited from earlier work

Oc1ccc(/C=C/c2cc(O)cc(O)c2)cc1 [resveratrol, trans-3,4′,5-trihydroxystilbene]
percentage of days where hamsters had a mucositis score of three or higher ([1]; 1 mM resveratrol, intraperitoneal): 21.6%
percentage of days where hamsters had a mucositis score of three or higher ([1]; 5 mM resveratrol, intraperitoneal): 31.2%
severity of mucositis compared to the control ([1]; intraperitoneal, 1 mM and 5 mM (FIG. 2)): reduced the severity of mucositis
efficacy of 1 mM compared with 5 mM treatment ([1]; intraperitoneal, 1 mM versus 5 mM): more effective
efficacy of topical application on mucositis ([1]; topical, tid, 1 mM and 5 mM): not statistically significant, indicated a trend of efficacy
activation of NF-κB (NF-κB): blocked the activation of NF-κB
